Experimental data published in PubChem BioAssay AID504672 (Sanford-Burnham Center for Chemical Genomics, 2011).
Activity calls are given as the source filed them. Rule as the data show it: active = IC50 below about 71 µM; inactive = the rest.

test system: S. cerevisiae tim10 strain, luminescence counterscreen; assay: TIM10 strain luminescence inhibitors – S. cerevisiae, uHTS hits, counter-screen for tim23-1 inhibitor project, dose response (AID 504672);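 also: yeast grew roughly 22 hours at 25 °C before the luminescence read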

SMILES	IC50
CCCCCCn1c(=O)c(-c2ccccc2)c(O)c2ccccc21	11.4 µM
Cc1ccc2nc(N3CCN(C=O)CC3)nc(-c3ccccc3)c2c1	9.88 µM
O=C(CC(=O)c1cc(Cl)ccc1O)c1ccccc1	11.1 µM
CCN(CC)c1ccc(C(=O)Nc2cccc(F)c2)cc1	5.64 µM
Oc1ccc(/C=N/Nc2cccc(Cl)n2)c(O)c1	14.9 µM
COC(=O)c1ccc(C(=O)OC)c(NC(=O)CSc2cccc[n+]2[O-])c1	10.6 µM
Cc1ccn2cc(C(=O)Nc3ccc4c(c3)OCCO4)nc2c1	> 100 µM (inactive)
CC(=O)Nc1ncnc2c1c(-c1ccc(Cl)cc1)nn2C(C)(C)C	9.62 µM
COCCn1c(C)cc(C(=O)COC(=O)c2ccc([N+](=O)[O-])o2)c1C	8.28 µM
O=c1c(O)c(-c2ccccc2)oc2cc(O)cc(O)c12	35.5 µM
COC(=O)N/N=C/c1ccc(-c2cc(Cl)cc(Cl)c2)o1	18 µM
CCCC(=O)NC(c1ccc(C(C)C)cc1)c1ccc2cccnc2c1O (stereo not drawn)	7.76 µM
O=C(CSc1cccs1)Nc1ccc2ccccc2c1	24.4 µM
Cc1oc2cc(O)cc(O)c2c(=O)c1-c1ccc2c(c1)OCCCO2	10.7 µM
CC(C)(C)c1ccc(Oc2ccc(N)cc2)cc1	13.7 µM
O=C(/C=C/c1ccccc1Cl)Nc1ccccc1	44.7 µM
COc1ccc(OC)c(-c2csc(NC(=O)Cc3ccc(F)cc3)n2)c1	27.7 µM
COc1cc(OC)cc(C(=O)Nc2ccc(Nc3ccccc3)cc2)c1	27.3 µM
Cc1ccc2occ(C(=O)c3ccco3)c(=O)c2c1	9.21 µM
c1ccc2[nH]c(-c3ccc4c(c3)OCO4)nc2c1	12.4 µM
Cc1cccc(C(=O)Oc2cccc3c(O)cccc23)c1	8.12 µM

SMILES	IC50
Cc1cc2cc(CNC(=O)c3ccc(C)c([N+](=O)[O-])c3)ccc2[nH]1	31 µM
O=C(Oc1ccc(=O)n(-c2ccccc2)n1)c1ccc(Cl)cc1	34.7 µM
CC(=O)Nc1cccc(-c2cc(-c3c(Cl)cccc3Cl)no2)c1	8.63 µM
CCSc1ncc(/C=N/Nc2ccc(Cl)cc2)n1C	10.9 µM
N#C/C(N)=C(/C#N)N=Cc1cccc(Cl)c1	14.2 µM
c1ccc(-c2nc(NCc3cccs3)c3ccccc3n2)cc1	14.3 µM
Cc1ccc(-c2nc(CNC(=O)c3cc(C)on3)cs2)cc1	19.8 µM
O=Cc1cn(CCOc2ccccc2F)c2ccccc12	22.3 µM
CC(C)(C)c1csc(NC(=O)c2ccc(Cl)s2)n1	24.6 µM
Cc1occc1C(=O)N/N=C/C(Br)=C/c1ccccc1	11.5 µM
c1ccc2[nH]c(CSc3nc4ccccc4o3)nc2c1	18.6 µM
COc1cc2c3c(c1)C(C)CC(C)(C)N3C(=O)C2=O (stereo not drawn)	13.8 µM
CCCN(C(=O)c1ccc([N+](=O)[O-])c(C)c1)c1c(N)n(Cc2ccccc2)c(=O)[nH]c1=O	> 100 µM (inactive)
Cc1nc2scc(C)n2c(=O)c1S(=O)(=O)Nc1ccc(N2CCOCC2)cc1	> 100 µM (inactive)
CN1CCc2nc3sc(C(=O)C45CC6CC(CC(C6)C4)C5)c(N)c3cc2C1	86.3 µM
CC1=C(C)/C(=N/OC(=O)c2cccc([N+](=O)[O-])c2)C=CC1=O	5.21 µM
O=C(CCl)Nc1cccc(-c2cnc3ccccc3n2)c1	14.6 µM
O=CN(/C=C1\Sc2ccccc2C1=O)Cc1ccccc1	15.5 µM
O=C(c1cc(-c2ccc(O)cc2)on1)N1CCc2ccccc2C1	17.1 µM
COc1ccc(NCc2ccc([N+](=O)[O-])s2)cc1	6.42 µM
O=C(Nc1ccccc1)C1C(c2ccccc2)C1(Cl)Cl (stereo not drawn)	20.6 µM

SMILES	IC50
O=[N+]([O-])c1ccc(N/N=C/c2cccc(O)c2)cc1	6.08 µM
O=Cc1cccnc1SCc1ccccc1	12.1 µM
O=C(N/N=C/C(Br)=C/c1ccccc1)c1cccs1	8.5 µM
COC(=O)c1c(-c2ccc(S(C)(=O)=O)cc2)sc2ccc(OC)cc12	11.4 µM
c1ccc(-c2cc3ccccc3cn2)cc1	7.8 µM
O=C(Nc1cccc(NC(=O)c2cccs2)c1)c1ccc(Br)o1	15 µM
CC(C)n1cc(NC(=O)c2cc(-c3ccccc3)on2)cn1	14.3 µM
Cc1nc2ccc(C(C(F)(F)F)(C(F)(F)F)C(F)(F)F)cc2[nH]1	19.9 µM
COc1ccc(C(=O)Nc2nc3ccccc3s2)c(OC)c1	7.13 µM
Nc1ccc(/C=C/C(=O)c2cccs2)cc1	3.17 µM
COc1cccc2c1C(=O)C=C(C)C2=O	13.2 µM
COc1ccc(C2=NNC(c3cccs3)=Nc3ccc(OC)cc32)cc1	9.29 µM
O=C(Nc1nsc(-c2ccccc2)n1)c1cccs1	6.65 µM
CC1(C)c2cc(Cl)ccc2-n2c1cc(O)c(-c1ccccc1)c2=O	11.5 µM
Cc1ccn(-c2ccc(NC(=O)c3cccs3)cc2)n1	5.12 µM
O=c1oc(-c2ccc(Br)o2)nc2ccccc12	8.59 µM
CCc1cccc2c(C(=O)CCl)c[nH]c12	25.1 µM
N#Cc1c(-c2ccccc2)cc(-c2ccc(O)cc2)nc1N	9.91 µM
Cc1[nH][nH]c(=O)c1C(c1ccc(-c2ccc(F)cc2)o1)c1c(C)[nH][nH]c1=O	16.3 µM
Cc1cccc(N2C(=O)c3ccc(Br)cc3C2=O)n1	7.58 µM
COc1ccc(NC(=O)Nc2nc3c(s2)CCCC3)cc1	14.5 µM
